The results in this text go back to publication PMC8148022 (Cancer letters, 2018).

The target in this assay is T1, breast cancer resistance protein (BCRP) (Homo sapiens, UniProt Q9UNQ0).
T1 sequence (Q9UNQ0 1-655): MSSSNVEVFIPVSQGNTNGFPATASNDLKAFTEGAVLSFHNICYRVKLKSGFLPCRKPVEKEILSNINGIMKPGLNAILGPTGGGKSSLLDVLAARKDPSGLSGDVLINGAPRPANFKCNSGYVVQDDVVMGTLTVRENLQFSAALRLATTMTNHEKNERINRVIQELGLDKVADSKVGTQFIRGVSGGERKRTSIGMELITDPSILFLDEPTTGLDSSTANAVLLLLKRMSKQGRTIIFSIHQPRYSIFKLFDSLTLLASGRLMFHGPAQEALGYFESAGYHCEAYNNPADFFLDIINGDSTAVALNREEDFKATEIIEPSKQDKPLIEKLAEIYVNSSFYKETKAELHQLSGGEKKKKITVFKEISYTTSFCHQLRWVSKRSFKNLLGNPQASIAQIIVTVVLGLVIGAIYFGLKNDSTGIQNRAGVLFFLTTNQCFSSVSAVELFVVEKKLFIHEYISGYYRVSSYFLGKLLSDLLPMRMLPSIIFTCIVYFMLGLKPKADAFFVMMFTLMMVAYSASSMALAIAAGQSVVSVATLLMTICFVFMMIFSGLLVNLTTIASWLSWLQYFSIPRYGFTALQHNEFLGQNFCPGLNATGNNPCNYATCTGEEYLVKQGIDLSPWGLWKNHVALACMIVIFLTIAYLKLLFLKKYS
The assay can be described thus: biochemical.

For orientation: EC50 means the concentration needed to bring the measured effect to its halfway point. As to `CNC(=O)c1cc(Oc2ccc(NC(=O)Nc3ccc(Cl)c(C(F)(F)F)c3)c(F)c2)ccn1` [regorafenib], the response was half-maximal at 3.59 ± 0.42 µM (EC50).
